Data from paper PMC9306950 (Clinical Pharmacology in Drug Development, 2022).
Like-named read-outs stand apart in the source and are kept apart here.

Experiments:
[1] = Safety: treatment-emergent adverse events in study CL-0538; assay type: in vivo, healthy subjects
[2] = plasma
[3] = for CL/F lower in the presence of roxadustat: concomitant roxadustat vs statin alone; for increase of AUCinf / increase of Cmax: statin dosed concomitantly with roxadustat vs statin alone
[4] = Safety: treatment-emergent adverse events in study CL-0537; assay type: in vivo, healthy subjects; details: for TEAE headache, subjects / TEAE nasopharyngitis, subjects: CL-0537
clinical = details: human, in vivo; for AUC(0-inf): AUCinf
[5] = for AUC(0-inf) / Cmax / half-life / Tmax / AUC(0-t): human, in vivo; for AUC(0-inf): AUCinf; for AUC(0-t): AUClast
[6] = Safety: treatment-emergent adverse events in study CL-0541; assay type: in vivo, healthy subjects
[7] = atorvastatin 40 mg + roxadustat 200 mg, concomitant
[8] = statin + roxadustat 200 mg (steady state), concomitant, plasma
[9] = statin + roxadustat / statin alone
[10] = statin alone, single oral dose, plasma
[11] = po, mean (SD), statin alone, single oral dose, plasma
[12] = GLS mean for statin alone, statin alone
[13] = po, median (min-max), statin alone, single oral dose, plasma
[14] = 40 mg, mean (SD), simvastatin 40 mg alone, plasma
[15] = mean (SD), simvastatin administered 2 hours before roxadustat, plasma
[16] = mean (SD), simvastatin administered 4 hours after roxadustat, plasma
[17] = mean (SD), simvastatin administered 10 hours after roxadustat, plasma
[18] = median (min-max), simvastatin administered 2 hours before roxadustat, plasma
[19] = median (min-max), simvastatin administered 4 hours after roxadustat, plasma
[20] = median (min-max), simvastatin administered 10 hours after roxadustat, plasma
[21] = simvastatin administered 2 hours before roxadustat
[22] = simvastatin administered 4 hours after roxadustat
[23] = simvastatin administered 10 hours after roxadustat

## CC(C)c1c(C(=O)Nc2ccccc2)c(-c2ccccc2)c(-c2ccc(F)cc2)n1CC[C@@H](O)C[C@@H](O)CC(=O)O [Atorvastatin]
[1]; CL-0538
  TEAE dry mouth, subjects: 0.0%
  TEAE headache, subjects: 4.2%
[1]; investigator assessment
  number of TEAEs considered possibly related to the study drug: 2
  subjects with TEAEs considered possibly related to the study drug: 2 (8.3%) n (%)
[2]; [7]
  tlag, mean (SD): 0 (0.0) h
  tlag, median (min-max): 0 (0–0) h
[2]; atorvastatin 40 mg alone
  tlag, mean (SD): 0 (0.0) h
  tlag, median (min-max): 0 (0–0) h

## CC(C)c1nc(N(C)S(C)(=O)=O)nc(-c2ccc(F)cc2)c1/C=C/[C@@H](O)C[C@@H](O)CC(=O)O [Rosuvastatin]
[3]
  CL/F lower in the presence of roxadustat: 66%
  increase of AUCinf: 2.93 fold
  increase of Cmax: 4.47 fold
[3]; human, in vivo
  AUCinf, GLS mean for statin alone: 62 878 pg • h/mL
  AUCinf, mean (SD): 196 187 (95 367) pg • h/mL
  AUCinf, median (min-max): 177 873 (48 036–503 953) pg • h/mL
  AUClast, mean (SD): 192 156 (95 253) pg • h/mL
  AUClast, median (min-max): 173 565 (43 917–498 457) pg • h/mL
  Cmax, mean (SD): 22 980 (12 787) pg/mL
  Cmax, median (min-max): 19 811 (4059–58 463) pg/mL
  tlag, mean (SD): 0 (0.0) h
  tlag, median (min-max): 0 (0–0) h
[3]; human, in vivo, po
  AUCinf, mean (SD): 67 613 (33 727) pg • h/mL
  AUCinf, median (min-max): 57 187 (21 336–165 242) pg • h/mL
  AUClast, mean (SD): 61 459 (34 796) pg • h/mL
  AUClast, median (min-max): 54 017 (0–159 223) pg • h/mL
  Cmax, mean (SD): 4939 (2991) pg/mL
  Cmax, median (min-max): 4062 (0–13 775) pg/mL
  tlag, mean (SD): 0 (0.0) h
  tlag, median (min-max): 0 (0–0) h
[3]; [8]
  CL/F, mean (SD): 63.4 (35.8) L/h
  CL/F, median (min-max): 56.22 (19.8–208) L/h
[3]; [9]
  AUCinf, GLS mean ratio (%): 292.55%
  Cmax, GLS mean ratio (%): 447.33%
[3]; [10]
  CL/F, mean (SD): 185.3 (91.3) L/h
  CL/F, median (min-max): 174.9 (60.5–469) L/h
  tmax, median (min-max): 4.00 (3.00–6.02) h
[4]
  TEAE headache, subjects: 0.0%
  TEAE nasopharyngitis, subjects: 0.0%
[4]; investigator assessment
  number of TEAEs considered related to the study drug: 2
  subjects with TEAEs considered related to the study drug: 2 (7.1%) n (%)
clinical; GLS mean for roxadustat + statin
  AUC(0-inf): 184 ng·h/mL
clinical; GLS mean for statin alone
  Cmax: 4.65 ng/mL
clinical; po, t1/2, mean (SD), statin alone, single oral dose, plasma
  half-life: 15.5 h
clinical; po, t1/2, median (min-max), statin alone, single oral dose, plasma
  half-life: 15.2 h
clinical; [11]
  Tmax: 3.9 h

## CCC(C)(C)C(=O)O[C@H]1C[C@@H](C)C=C2C=C[C@H](C)[C@H](CC[C@@H](O)C[C@@H](O)CC(=O)O)[C@H]21 [Simvastatin acid]
[3]; [8]
  tlag, mean (SD): 0.29 (0.35) h
  tlag, median (min-max): 0 (0–1.02) h
[3]; [10]
  tlag, mean (SD): 0.47 (0.31) h
  tlag, median (min-max): 0.50 (0–1.00) h
[3]
  increase of AUCinf: 1.85 fold
  increase of Cmax: 2.76 fold
clinical; [12]
  AUC(0-inf): 24.6 ng·h/mL
  Cmax: 1.86 ng/mL
clinical; [11]
  Cmax: 2.17 ng/mL
  Tmax: 5.7 h
clinical; [13]
  Cmax: 2.06 ng/mL
  Tmax: 4.02 h
clinical; po, t1/2, mean (SD)
  half-life: 6.28 h
clinical; po, t1/2, median (min-max)
  half-life: 5.78 h
clinical; t1/2, mean (SD)
  half-life: 5.98 h
clinical; t1/2, median (min-max)
  half-life: 5.27 h
[5]; [14]
  AUC(0-inf): 24.3 ng·h/mL
  Cmax: 2.12 ng/mL
  Tmax: 5.38 h
[5]; 40 mg, median (min-max), simvastatin 40 mg alone, plasma
  AUC(0-inf): 21.2 ng·h/mL
[5]; 40 mg, t1/2, mean (SD), simvastatin 40 mg alone, plasma
  half-life: 7 h
[5]; 40 mg, t1/2, median (min-max), simvastatin 40 mg alone, plasma
  half-life: 6.36 h
[5]; GLS mean for simvastatin alone, simvastatin alone
  AUC(0-inf): 21 ng·h/mL
[5]; [15]
  AUC(0-inf): 48.7 ng·h/mL
  AUC(0-t): 44.7 ng·h/mL
  Cmax: 4.99 ng/mL
  Tmax: 5.55 h
[5]; [16]
  AUC(0-inf): 84.7 ng·h/mL
  AUC(0-t): 82.8 ng·h/mL
  Cmax: 12.8 ng/mL
  Tmax: 4.01 h
[5]; [17]
  AUC(0-inf): 59.4 ng·h/mL
  AUC(0-t): 57.4 ng·h/mL
  Cmax: 7.13 ng/mL
  Tmax: 4.4 h
[5]; [18]
  AUC(0-inf): 41 ng·h/mL
  AUC(0-t): 38.2 ng·h/mL
  Cmax: 4.5 ng/mL
  Tmax: 6 h
[5]; [19]
  AUC(0-inf): 70.3 ng·h/mL
  AUC(0-t): 68.9 ng·h/mL
  Cmax: 11.6 ng/mL
[5]; [20]
  AUC(0-inf): 50.5 ng·h/mL
  AUC(0-t): 49.8 ng·h/mL
  Cmax: 6.1 ng/mL
  Tmax: 4.01 h
[5]; t1/2, mean (SD), simvastatin administered 2 hours before roxadustat, plasma
  half-life: 4.6 h
[5]; t1/2, mean (SD), simvastatin administered 4 hours after roxadustat, plasma
  half-life: 3.75 h
[5]; t1/2, mean (SD), simvastatin administered 10 hours after roxadustat, plasma
  half-life: 4.16 h
[5]; t1/2, median (min-max), simvastatin administered 2 hours before roxadustat, plasma
  half-life: 4.27 h
[5]; t1/2, median (min-max), simvastatin administered 4 hours after roxadustat, plasma
  half-life: 3.45 h
[5]; simvastatin 40 mg alone, plasma
  AUClast, mean (SD): 22.17 (11.98) ng • h/mL
[5]; simvastatin administered 4 hours after roxadustat, plasma
  tmax, median (min-max): 4.00 (2.02–6.00) h

## CCC(C)(C)C(=O)O[C@H]1C[C@@H](C)C=C2C=C[C@H](C)[C@H](CC[C@@H]3C[C@@H](O)CC(=O)O3)[C@H]21 [Simvastatin]
[3]
  CL/F lower in the presence of roxadustat: 40%
  increase of Cmax: 1.87 fold
[6]; [21]
  TEAE headache, subjects: 16.7%
  TEAE incidence: Overall: 9 (37.5%) n (%)
  total number of TEAEs: 12
[6]; [22]
  TEAE headache, subjects: 4.2%
  TEAE incidence: Overall: 6 (25.0%) n (%)
  number of TEAEs of dizziness possibly related to the study drug: 1
  subjects with TEAE of dizziness possibly related to the study drug: 1 (4.2%) n (%)
  total number of TEAEs: 8
[6]; [23]
  TEAE headache, subjects: 8.3%
  TEAE incidence: Overall: 4 (16.7%) n (%)
  number of TEAEs of dizziness possibly related to the study drug: 2
  subjects with TEAE of dizziness possibly related to the study drug: 1 (4.2%) n (%)
  total number of TEAEs: 9
[6]; simvastatin administered alone
  TEAE headache, subjects: 8.3%
[6]; simvastatin alone
  TEAE incidence: Overall: 5 (20.8%) n (%)
  total number of TEAEs: 6
[4]
  TEAE headache, subjects: 0.0%
  TEAE nasopharyngitis, subjects: 0.0%
[5]; simvastatin 2 hours before roxadustat
  lower mean CL/F: 42%
[5]; simvastatin 4 hours after roxadustat
  lower mean CL/F: 51%
[5]; simvastatin 10 hours after roxadustat
  lower mean CL/F: 46%
